Source: the CheMixHub viscosity set
Where “and” joins values, the source holds several entries; their conditions need not be identical. Equal values may be shown once.

Experiment: xn = mol fraction of the nth substance listed

NC(N)=O + C[N+](C)(C)CCO.[Cl-]
viscosity
Settings	100 kPa	101 kPa
293.15 K, x2 = 0.326	1696 mPa·s	–
298.15 K, x2 = 0.33	952.7 mPa·s	–
298.15 K, x2 = 0.333	750 mPa·s and 1264 mPa·s	859.5 mPa·s
298.15 K, x2 = 0.3333	–	748.1 mPa·s
303 K, x2 = 0.3333	–	427.4 mPa·s
303.15 K, x1 = 0.7	–	893 mPa·s
303.15 K, x2 = 0.326	635.5 mPa·s	–
303.15 K, x2 = 0.33	628.9 mPa·s	536.9 mPa·s
303.15 K, x2 = 0.333	562.7 mPa·s	–
303.15 K, x2 = 0.3333	–	511.6 mPa·s
308 K, x2 = 0.333	–	402.8 mPa·s
308 K, x2 = 0.3333	–	310.5 mPa·s
308.15 K, x2 = 0.326	414.6 mPa·s	–
308.15 K, x2 = 0.33	421.9 mPa·s	–
308.15 K, x2 = 0.333	–	348.2 mPa·s
308.15 K, x2 = 0.3333	–	351.5 mPa·s
313 K, x2 = 0.333	–	228 mPa·s
313 K, x2 = 0.3333	–	225.8 mPa·s
313.15 K, x2 = 0.326	280.7 mPa·s	–
313.15 K, x2 = 0.33	314 mPa·s	242.5 mPa·s
313.15 K, x2 = 0.333	296.3 mPa·s	–
313.15 K, x2 = 0.3333	–	243 mPa·s
318 K, x2 = 0.3333	–	163.3 mPa·s
318.15 K, x2 = 0.326	196.4 mPa·s	–
318.15 K, x2 = 0.33	224.4 mPa·s	–
318.15 K, x2 = 0.333	244.7 mPa·s	175.1 mPa·s
318.15 K, x2 = 0.3333	–	169.6 mPa·s
323 K, x2 = 0.333	–	105.6 mPa·s
323 K, x2 = 0.3333	–	121 mPa·s
323.15 K, x1 = 0.7	–	197 mPa·s
323.15 K, x2 = 0.326	142 mPa·s	–
323.15 K, x2 = 0.33	161.2 mPa·s	–
323.15 K, x2 = 0.333	171.5 mPa·s and 198.4 mPa·s	–

OCCOCCOCCO + C[N+](C)(C)CCO.[Cl-]
Settings	viscosity [mPa·s]
298.15 K, 101 kPa, x2 = 0.25	72.3

CCCCCCCCCCO + Cc1ccc(C)cc1
viscosity [mPa·s], 101 kPa
Settings	298.15 K	308.15 K
x2 = 0.0806	9.447	6.565
x2 = 0.1731	7.145	5.045
x2 = 0.2506	5.591	4.011
x2 = 0.3197	4.463	3.242
x2 = 0.3693	3.779	2.781
x2 = 0.4336	3.053	2.275
x2 = 0.4929	2.512	1.9
x2 = 0.5771	1.908	1.481
x2 = 0.662	1.456	1.153
x2 = 0.7265	1.2	0.963
x2 = 0.7763	1.04	0.845
x2 = 0.8293	0.9	0.744
x2 = 0.8891	0.776	0.648
x2 = 0.9369	0.693	0.59

CCOC(=O)OCC + Cc1ccc(C)cc1
viscosity [mPa·s]
Settings	293.15 K	298.15 K	303.15 K	323.15 K
101 kPa, x1 = 0.0997	0.6494	0.6068	0.5681	0.4546
101 kPa, x1 = 0.1509	0.6571	0.6141	0.5733	0.4578
101 kPa, x1 = 0.2121	0.6663	0.6229	0.5814	0.4633
101 kPa, x1 = 0.2979	0.6785	0.6347	0.5918	0.4704
101 kPa, x1 = 0.3942	0.693	0.6486	0.6058	0.4794
101 kPa, x1 = 0.495	0.7081	0.6627	0.618	0.4891
101 kPa, x1 = 0.5955	0.7239	0.6787	0.6309	0.4973
101 kPa, x1 = 0.7004	0.7423	0.6948	0.6471	0.508
101 kPa, x1 = 0.8	0.7603	0.7126	0.6639	0.5178
101 kPa, x1 = 0.8891	0.7782	0.7304	0.6786	0.5292
101.3 kPa, x1 = 0.1027	–	0.607	–	–
101.3 kPa, x1 = 0.1721	–	0.615	–	–
101.3 kPa, x1 = 0.2449	–	0.622	–	–
101.3 kPa, x1 = 0.3566	–	0.636	–	–
101.3 kPa, x1 = 0.4208	–	0.643	–	–
101.3 kPa, x1 = 0.4919	–	0.658	–	–
101.3 kPa, x1 = 0.6427	–	0.68	–	–
101.3 kPa, x1 = 0.716	–	0.687	–	–
101.3 kPa, x1 = 0.7162	–	0.687	–	–
101.3 kPa, x1 = 0.8043	–	0.701	–	–
101.3 kPa, x1 = 0.9158	–	0.723	–	–

Cc1ccccc1C + Cc1ccc(C)cc1
101.3 kPa
Settings	viscosity [mPa·s]
298.15 K, x1 = 0.0748	0.6114
298.15 K, x1 = 0.1866	0.6242
298.15 K, x1 = 0.3032	0.641
298.15 K, x1 = 0.4147	0.6549
298.15 K, x1 = 0.5702	0.6779
298.15 K, x1 = 0.6823	0.6995
298.15 K, x1 = 0.8109	0.7176
298.15 K, x1 = 0.9402	0.7417
303.15 K, x1 = 0.0902	0.5764
303.15 K, x1 = 0.2065	0.5904
303.15 K, x1 = 0.3178	0.604
303.15 K, x1 = 0.4339	0.6204
303.15 K, x1 = 0.4577	0.6237
303.15 K, x1 = 0.5832	0.642
303.15 K, x1 = 0.6243	0.6474
303.15 K, x1 = 0.7864	0.6729
303.15 K, x1 = 0.8933	0.6889

Cc1ccccc1C + Cc1cccc(C)c1
viscosity [mPa·s], 101.3 kPa
Settings	x1 = 0.0817	x1 = 0.1825	x1 = 0.2946	x1 = 0.4285	x1 = 0.5533	x1 = 0.6715	x1 = 0.7904	x1 = 0.9	x1 = 0.9001
298.15 K	0.5998	0.6144	0.6303	0.6512	0.6731	0.6924	0.7148	0.7349	–
303.15 K	0.5668	0.5783	0.5938	0.6119	0.631	0.6486	0.6675	–	0.6859

Cc1ccccc1C + Cc1ccccc1
viscosity [mPa·s], 101.33 kPa
Settings	x2 = 0.3003	x2 = 0.3607	x2 = 0.5223	x2 = 0.6669	x2 = 0.8205
293.15 K	0.722	0.708	0.67	0.64	0.616
303.15 K	0.636	0.626	0.601	0.567	0.546
313.15 K	0.568	0.557	0.528	0.508	0.489
323.15 K	0.507	0.5	0.472	0.456	0.441
